Assay results from patent US8492564B2 (priority 2008, dated 2013).
Read-outs that look alike come from different tables or passages of the source.

What was measured:
human KOPR (hKOPR) = human KOPR (hKOPR) (Homo sapiens (Human), UniProt P41145); assay type: binding
hKOPR = hKOPR (Homo sapiens (Human), UniProt P41145); assay: biochemical; details: for Emax: read-out: Efficacy (Percent of the maximal effect of U50,488H)
[1] = Intracranial self-stimulation (ICSS); assay type: in vivo; details: 1.0 mg/kg, IP, rats, 1-hour test sessions
Locomotor activity = assay type: in vivo; details: rats
Forced swim test (FST) = assay type: in vivo; details: rats
Procedure: The FST is a two day procedure in which rats swim under conditions in which escape is not possible. On the first day, the rats are forced to swim for 15 minutes. The rats initially search for an escape from the water, but eventually adopt a posture of immobility in which they make only the movements necessary to keep their heads above water. Upon re-testing one day later, latencies to become immobile (an indicator of how rapidly the rats “give up” in response to a familiar stressor) are decreased, which is inferred as despair. Standard antidepressants such as desipramine (DMI) and fluoxetine (FLX) extend latencies to become immobile. Drug efficacy in this animal model is predictive of antidepressant efficacy in humans. The FST has been described by Mague et al., J. Pharmacol. Exp. Ther. 305:323 (2003).

C=Cc1occc1[C@@H]1C[C@]2(C)[C@H]3C(=O)[C@@H](OC(C)=O)C[C@@H](C(=O)OC)[C@]3(C)CC[C@H]2C(=O)O1 [Compound 3]
Ki (human KOPR (hKOPR)): 7.1 ± 0.1 nM | EC50 (hKOPR; read-out: EC50): 4.6 ± 0.1 nM | Emax (hKOPR): 120 ± 6%

COC(=O)[C@@H]1C[C@H](OC(C)=O)C(=O)[C@H]2[C@@]1(C)CCC1C(=O)O[C@H](C(=O)O)C[C@@]12C (some centres unmarked) [Compound 7]
Ki (human KOPR (hKOPR)): 55 ± 23 nM | Efficacy (Percent of the maximal effect of U50,488H) (hKOPR): 99 ± 1% | EC50 (hKOPR; read-out: EC50): 167 ± 35 nM

COC[C@@H]1C[C@]2(C)[C@H]3C(=O)[C@@H](OC(C)=O)C[C@@H](C(=O)OC)[C@]3(C)CC[C@H]2C(=O)O1 [Compound 9]
Ki (human KOPR (hKOPR)): 498 ± 71 nM | EC50 (hKOPR; read-out: EC50): 330 ± 30 nM | Emax (hKOPR): 98 ± 2%

CCOC[C@@H]1C[C@]2(C)[C@H]3C(=O)[C@@H](OC(C)=O)C[C@@H](C(=O)OC)[C@]3(C)CC[C@H]2C(=O)O1 [Compound 10]
Ki (human KOPR (hKOPR)): 497 ± 13 nM | EC50 (hKOPR): > 1000 nM

COC(=O)[C@@H]1C[C@H](OC(C)=O)C(=O)[C@H]2[C@@]1(C)CC[C@H]1C(=O)O[C@H](COC(C)=O)C[C@]21C [Compound 11]
Ki (human KOPR (hKOPR)): 555 ± 97 nM | EC50 (hKOPR; read-out: EC50): 299 ± 13 nM | Emax (hKOPR): 113 ± 3%

COC(=O)[C@@H]1C[C@H](OC(C)=O)C(=O)[C@H]2[C@@]1(C)CC[C@H]1C(=O)O[C@H](C(=O)c3cccs3)C[C@]21C [Compound 13]
Ki (human KOPR (hKOPR)): 38 ± 10 nM | EC50 (hKOPR; read-out: EC50): 101 ± 6 nM | Emax (hKOPR): 103 ± 1%

COC(=O)[C@@H]1C[C@H](OC(C)=O)C(=O)[C@H]2[C@@]1(C)CC[C@H]1C(=O)O[C@H](C(=O)c3cnccn3)C[C@]21C [Compound 16]
Ki (human KOPR (hKOPR)): 83 ± 28 nM | EC50 (hKOPR; read-out: EC50): 195 ± 6 nM | Emax (hKOPR): 103 ± 3%

COC(=O)[C@@H]1C[C@H](OC(C)=O)C(=O)[C@H]2[C@@]1(C)CC[C@H]1C(=O)O[C@H](C(O)c3ccco3)C[C@]21C (some centres unmarked) [Compound 17]
Ki (human KOPR (hKOPR)): 20 ± 2 nM | EC50 (hKOPR; read-out: EC50): 36 ± 5 nM | Emax (hKOPR): 114 ± 4%

COC(=O)[C@@H]1C[C@]2(C)[C@H]3C(=O)[C@@H](OC(C)=O)C[C@@H](C(=O)OC)[C@]3(C)CC[C@H]2C(=O)O1 [Compound 18]
Ki (human KOPR (hKOPR)): 154 ± 27 nM | EC50 (hKOPR; read-out: EC50): 361 ± 25 nM | Emax (hKOPR): 99 ± 2%

CCOC(=O)[C@@H]1C[C@]2(C)[C@H]3C(=O)[C@@H](OC(C)=O)C[C@@H](C(=O)OC)[C@]3(C)CC[C@H]2C(=O)O1 [Compound 19]
Ki (human KOPR (hKOPR)): 196 ± 23 nM | EC50 (hKOPR; read-out: EC50): 508 ± 8 nM | Emax (hKOPR): 94 ± 2%

COC(=O)[C@@H]1C[C@H](OC(C)=O)C(=O)[C@H]2[C@@]1(C)CC[C@H]1C(=O)O[C@H](C(=O)OC(C)C)C[C@]21C [Compound 20]
Ki (human KOPR (hKOPR)): 109 ± 12 nM | EC50 (hKOPR; read-out: EC50): 337 ± 54 nM | Emax (hKOPR): 94 ± 2%

COC(=O)[C@@H]1C[C@H](OC(C)=O)C(=O)[C@H]2[C@@]1(C)CC[C@H]1C(=O)O[C@H](c3ccoc3)C[C@]21C [Salvinorin A, salvinorin A]
ICSS thresholds [1]: significantly elevated | effect on locomotor activity (Locomotor activity): without affecting locomotor activity | effect in the forced swim test (Forced swim test (FST)): depressive-like effects
